According to patent US9993478B2, “1-pyrazolyl-3-(4-((2-anilinopyrimidin-4-yl) oxy) napththalen-1-yl) ureas as P38 MAP knase inhibitors” (Respivert Ltd., priority 2011, dated 2018):

Key:
A/J mice = test: Cigarette smoke model; format: in vivo; conditions: tobacco smoke
Description: A/J mice (males, 5 weeks old) were exposed to cigarette smoke (4% cigarette smoke, diluted with air) for 30 min/day for 11 days using a Tobacco Smoke Inhalation Experiment System for small animals (Model SIS-CS; Sibata Scientific Technology, Tokyo, Japan). Test substances were administered intra-nasally (35 μL of solution in 50% DMSO/PBS) once daily for 3 days after the final cigarette smoke exposure. At 12 hr after the last dosing, each of the animals was anesthetized, the trachea cannulated and bronchoalveolar lavage fluid (BALF) was collected. The numbers of alveolar macrophages and neutrophils were determined by FACS analysis (EPICS® ALTRA II, Beckman Coulter, Inc., Fullerton, Calif., USA) using anti-mouse MOMA2 antibody (macrophage) or anti-mouse 7/4 antibody (neutrophil). BALF was centrifuged and the supernatant was collected. The level of keratinocyte chemoattractant (KC; CXCL1) in BALF was quantitated using a Quentikine® mouse KC ELISA kit (R&D systems, Inc., Minneapolis, Minn., USA).

d-U937 cells = test: Cell viability: MTT assay; format: cell-based, human; conditions: 1 μg/mL
Description: Differentiated U937 cells were pre-incubated with each test compound (final concentration 1 μg/mL or 10 μg/mL in 200 μL media indicated below) under two protocols: the first for 4 hr in 5% FCS RPMI1640 media and the second in 10% FCS RPMI1640 media for 24 h. The supernatant was replaced with new media (200 μL) and MTT stock solution (10 μL, 5 mg/mL) was added to each well. After incubation for 1 hr the media were removed, DMSO (200 μL) was added to each well and the plates were shaken lightly for 1 hr prior to reading the absorbance at 550 nm. The percentage loss of cell viability was calculated for each well relative to vehicle (0.5% DMSO) treatment. Consequently an apparent increase in cell viability for drug treatment relative to vehicle is tabulated as a negative percentage.

Cc1ccc(-n2nc(C(C)(C)C)cc2NC(=O)Nc2ccc(Oc3ccnc(Nc4ccccc4)n3)c3ccccc23)cc1 [Example 1, 1-(3-(tert-Butyl)-1-(p-tolyl)-1H-pyrazol-5-yl)-3-(4-(2-(phenylamino)pyrimidin-4-yloxy)naphthalen-1-yl)urea]
Macrophage numbers in BALF % inhibition (A/J mice; 0.32 μg/mL intra-nasal): 11%
Neutrophil numbers in BALF % inhibition (A/J mice; 0.32 μg/mL intra-nasal): 12%
Macrophage numbers in BALF % inhibition (A/J mice; 1.6 μg/mL intra-nasal): 28%
Neutrophil numbers in BALF % inhibition (A/J mice; 1.6 μg/mL intra-nasal): 29%
Macrophage numbers in BALF % inhibition (A/J mice; 8.0 μg/mL intra-nasal): 43%
Neutrophil numbers in BALF % inhibition (A/J mice; 8.0 μg/mL intra-nasal): 41%
Macrophage numbers in BALF % inhibition (A/J mice; 40 μg/mL intra-nasal): 64%
Neutrophil numbers in BALF % inhibition (A/J mice; 40 μg/mL intra-nasal): 52%
MTT Assay Cell viability at time point in d-U937 Cells 4 h (d-U937 cells): −ve (−ve and +ve indicate the value is below and above respectively, the no significant effect threshold defined as 30% inhibition at 1 μg/mL at the time point indicated)
MTT Assay Cell viability at time point in d-U937 Cells 24 h (d-U937 cells): −ve (−ve and +ve indicate the value is below and above respectively, the no significant effect threshold defined as 30% inhibition at 1 μg/mL at the time point indicated)

Cc1ccc(-n2nc(C(C)(C)C)cc2NC(=O)Nc2ccc(Oc3ccnc(Nc4ccc(O)cc4Cl)n3)c3ccccc23)cc1 [Example 31, 1-(3-(tert-butyl)-1-(p-tolyl)-1H-pyrazol-5-yl)-3-(4-((2-((2-chloro-4-hydroxyphenyl)amino)pyrimidin-4-yl)oxy)naphthalen-1-yl)urea]
MTT Assay Cell viability at time point in d-U937 Cells 4 h (d-U937 cells): −ve (−ve and +ve indicate the value is below and above respectively, the no significant effect threshold defined as 30% inhibition at 1 μg/mL at the time point indicated)
MTT Assay Cell viability at time point in d-U937 Cells 24 h (d-U937 cells): −ve (−ve and +ve indicate the value is below and above respectively, the no significant effect threshold defined as 30% inhibition at 1 μg/mL at the time point indicated)

Cc1ccc(-n2nc(C(C)(C)C)cc2NC(=O)Nc2ccc(Oc3ccnc(Nc4ccc(O)cc4O)n3)c3ccccc23)cc1 [Example 32, 1-(3-(tert-butyl)-1-(p-tolyl)-1H-pyrazol-5-yl)-3-(4-((2-((2,4-dihydroxyphenyl)amino)pyrimidin-4-yl)oxy)naphthalen-1-yl)urea]
MTT Assay Cell viability at time point in d-U937 Cells 4 h (d-U937 cells): −ve (−ve and +ve indicate the value is below and above respectively, the no significant effect threshold defined as 30% inhibition at 1 μg/mL at the time point indicated)
MTT Assay Cell viability at time point in d-U937 Cells 24 h (d-U937 cells): −ve (−ve and +ve indicate the value is below and above respectively, the no significant effect threshold defined as 30% inhibition at 1 μg/mL at the time point indicated)

COc1ccc(-n2nc(C(C)(C)C)cc2NC(=O)Nc2ccc(Oc3ccnc(Nc4ccc(O)cc4)n3)c3ccccc23)cc1 [Example 33, 1-(3-(tert-butyl)-1-(4-methoxyphenyl)-1H-pyrazol-5-yl)-3-(4-((2-((4-hydroxyphenyl)amino)pyrimidin-4-yl)oxy)naphthalen-1-yl)urea]
MTT Assay Cell viability at time point in d-U937 Cells 4 h (d-U937 cells): −ve (−ve and +ve indicate the value is below and above respectively, the no significant effect threshold defined as 30% inhibition at 1 μg/mL at the time point indicated)
MTT Assay Cell viability at time point in d-U937 Cells 24 h (d-U937 cells): −ve (−ve and +ve indicate the value is below and above respectively, the no significant effect threshold defined as 30% inhibition at 1 μg/mL at the time point indicated)

COCC(=O)Nc1cc(Oc2ccc(NC(=O)Nc3cc(C(C)(C)C)nn3-c3ccc(C)cc3)c3ccccc23)ccn1 [Reference Compound, N-(4-(4-(3-(3-tert-butyl-1-p-tolyl-1H-pyrazol-5-yl)ureido)naphthalen-1-yloxy)pyridin-2-yl)-2-methoxyacetamide, reference compound]
MTT Assay Cell viability at time point in d-U937 Cells 4 h (d-U937 cells): −ve (−ve and +ve indicate the value is below and above respectively, the no significant effect threshold defined as 30% inhibition at 1 μg/mL at the time point indicated)
MTT Assay Cell viability at time point in d-U937 Cells 24 h (d-U937 cells): +ve (−ve and +ve indicate the value is below and above respectively, the no significant effect threshold defined as 30% inhibition at 1 μg/mL at the time point indicated)
